Data as given in ChEMBL document CHEMBL1201862, “PubChem BioAssay data set” (2004).
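Growth conditions: 96-well plates. Treatment: test compound, 48 hours, 5 concentrations. Analysis: linear interpolation between bracketing concentrations; unreached endpoints set to highest concentration. GI50 is the concentration that inhibits growth by half.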 Calls of active or inactive are those of the source. Rule as the data show it: active = GI50 up to about 1.1 µM and inactive = higher.

Key:
Experiment in all cases: DTP human tumour cell line panel, 48 h
HOP-92 = test system: HOP-92
HOP-62 = test system: HOP-62
SR = test system: SR
RPMI-8226 = test system: RPMI-8226
SF-295 = test system: SF-295
SNB-75 = test system: SNB-75
OVCAR-3 = test system: OVCAR-3
SK-MEL-5 = test system: SK-MEL-5
HCT-116 = test system: HCT-116
M14 = test system: M14
U-251 = test system: U-251
SK-MEL-2 = test system: SK-MEL-2
TK-10 = test system: TK-10
UACC-62 = test system: UACC-62
MOLT-4 = test system: MOLT-4
A498 = test system: A498
SK-MEL-28 = test system: SK-MEL-28
OVCAR-4 = test system: OVCAR-4
SF-539 = test system: SF-539
NCI-H226 = test system: NCI-H226

Measured: GI50

CN1C(=O)c2ccc3ccccc3c2C1=O
inactive: HOP-92 98.6 µM | HOP-62 > 100 µM | SR > 100 µM | RPMI-8226 > 100 µM | SF-295 > 100 µM | SNB-75 27.9 µM | OVCAR-3 > 100 µM | SK-MEL-5 > 100 µM | HCT-116 77.4 µM | M14 > 100 µM | U-251 > 100 µM | SK-MEL-2 > 100 µM | TK-10 > 100 µM | UACC-62 > 100 µM | MOLT-4 > 100 µM | A498 47.3 µM | SK-MEL-28 > 100 µM | OVCAR-4 > 100 µM | SF-539 > 100 µM | NCI-H226 > 100 µM

C[C@@H]1C[C@@H]2OC(=O)[C@]3(C)[C@H]2[C@@H](OC3(C)O)[C@]2(C)C(=O)C=C[C@@H]12 (stereo not given in full) [TENULIN]
inactive: HOP-92 17.5 µM | HOP-62 87.7 µM | SR 5.18 µM | RPMI-8226 4.3 µM | SF-295 > 100 µM | SNB-75 > 100 µM | OVCAR-3 20.6 µM | SK-MEL-5 20.2 µM | HCT-116 16.6 µM | M14 20.6 µM | U-251 40.3 µM | SK-MEL-2 19.8 µM | TK-10 18 µM | UACC-62 16.8 µM | MOLT-4 16.4 µM | A498 22.6 µM | SK-MEL-28 18.3 µM | OVCAR-4 10.8 µM | SF-539 32.1 µM | NCI-H226 74 µM
